The record followed here is ChEMBL document CHEMBL1201862, “PubChem BioAssay data set” (2004).

Activity calls are given as the source filed them.

A short description of assay [1]: Luminescence Cell-Based Dose Response HTS to Identify Inhibitors of 5'UTR Stem-Loop Driven Prion Protein mRNA Translation in H4 Neuroglioblastoma Cells. [Related pubchem assays: 1827 (Project Summary), 1813 (Primary HTS)]. Type of assay: functional.
Assay [2] is described as follows: Luminescence-based counterscreen assay for KLF5 inhibitors: dose response cell-based high throughput screening assay to identify cytotoxic compounds using the IEC-6 intestinal epithelial cell line. [Related pubchem assays: 1700 (Primary screen.), 1834 (Confirmation screen.), 1858 (Summary AID.), 1905 (Counterscreen.)]. Type of assay: functional. (In general: Counterscreens check selectivity or assay interference.)

Assay [3] in a line: inhibitors of HIV Env-driven cell fusion, dose response, cherry-pick (AID 652057). It counts as functional, cell-based.
Assay [4] deals with T1, Heat shock factor protein 1 (Mus musculus, UniProt P38532).
T1 sequence (P38532 whole entry): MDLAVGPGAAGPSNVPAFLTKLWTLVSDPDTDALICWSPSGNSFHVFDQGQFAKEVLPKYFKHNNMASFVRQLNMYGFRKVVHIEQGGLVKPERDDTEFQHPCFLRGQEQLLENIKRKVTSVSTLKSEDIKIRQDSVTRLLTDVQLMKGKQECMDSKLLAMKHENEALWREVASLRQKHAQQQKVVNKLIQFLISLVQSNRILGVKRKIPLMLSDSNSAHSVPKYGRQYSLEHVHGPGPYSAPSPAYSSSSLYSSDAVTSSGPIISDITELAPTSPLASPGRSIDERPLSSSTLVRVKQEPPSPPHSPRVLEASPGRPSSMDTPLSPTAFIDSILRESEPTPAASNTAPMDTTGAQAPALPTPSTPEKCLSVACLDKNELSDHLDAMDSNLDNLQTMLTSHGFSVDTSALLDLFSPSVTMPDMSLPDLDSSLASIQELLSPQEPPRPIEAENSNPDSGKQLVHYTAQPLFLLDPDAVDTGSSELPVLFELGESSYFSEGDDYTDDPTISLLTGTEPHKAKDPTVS
The experiment in a line: inhibition of MG132-induced HSE-luciferase signal, confirmation, cell-based, NIH3T3, luminescence, dose retest (AID 2382).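 Also: NIH3T3 fibroblasts with HSF1-driven luciferase reporter stressed by proteasome inhibitor MG132; luminescence from HSF1-driven luciferase expression after 8 hours of MG132 stress.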 Type of assay: functional.

Assay [5] concerns the target T2, Microphthalmia-associated transcription factor (Homo sapiens, UniProt O75030).
T2 sequence (O75030 whole entry): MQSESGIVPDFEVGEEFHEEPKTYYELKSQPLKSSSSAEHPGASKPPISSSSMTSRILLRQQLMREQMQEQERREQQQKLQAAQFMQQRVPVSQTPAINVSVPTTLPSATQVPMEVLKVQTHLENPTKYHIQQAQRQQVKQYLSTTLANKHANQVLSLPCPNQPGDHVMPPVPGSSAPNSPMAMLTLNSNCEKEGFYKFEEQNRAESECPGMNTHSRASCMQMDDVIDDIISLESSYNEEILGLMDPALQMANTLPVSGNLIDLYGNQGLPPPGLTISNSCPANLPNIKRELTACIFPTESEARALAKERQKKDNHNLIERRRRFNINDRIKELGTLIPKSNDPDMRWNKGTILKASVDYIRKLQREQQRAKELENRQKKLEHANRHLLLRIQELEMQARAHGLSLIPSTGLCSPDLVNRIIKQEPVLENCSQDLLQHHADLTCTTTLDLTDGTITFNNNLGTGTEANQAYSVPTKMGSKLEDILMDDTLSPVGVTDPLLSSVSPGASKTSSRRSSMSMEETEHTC
The experiment in a line: TRPM1 promoter luciferase signal decrease, dose response, MITF inhibitor project, cell-based, SK-MEL-5, cherry-picked, set 3 (AID 493073).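 Also: SK-MEL-5 melanoma cells with luciferase driven by the MITF target TRPM1 promoter.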 Type of assay: functional.

Assay [6] is described as follows: inhibitors of SNCA 5'UTR-driven reporter translation, confirmation, H4 neuroglioma cells, luminescence (AID 1988). Type of assay: functional, cell-based.
Assay [7] in a line: ZM109 Env clade C HIV-1 fusion inhibitors, dose response, HeLa effector, CEM target cells, luciferase, cherry-pick (AID 652058). It counts as functional, cell-based.
The nature of assay [8]: inhibitors of clade B AD8 Env fusion, dose response, cell-based, cherry-pick (AID 652062).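 Also: luciferase signal from cell-cell fusion driven by HIV-1 clade B AD8 Env; potency is for inhibitors of fusion seen as a drop in luminescence.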 Type of assay: functional.
Assay [9] can be described thus: inhibitors of firefly luciferase expression or activity, dose response, H4 neuroglioma cells, luminescence (AID 1990). Type of assay: functional, cell-based.
Assay [10] is described as follows: off-target signal loss in HeLa-CEM21 co-culture – HeLa F-luc CTL cells, cherry-picked, counter-screen for HIV-1 Env fusion inhibitor project, dose response (AID 652040).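 Also: potency for signal decrease marking cytotoxic or nonspecific inhibition.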 It counts as functional, cell-based.
Assay [11] can be described thus: enhancers of respiration in Yfh1-depleted yeast, dose response, Friedreich's ataxia, plus single-dose screen (AID 1465).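 Also: yeast depleted of Yfh1p frataxin homolog grown on glycerol needing respiration; WST-1 tetrazolium dye reduction as measure of cellular dehydrogenase metabolic activity.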 Type of assay: functional.
A further assay concerns the target Genome polyprotein (dengue virus type 2, UniProt P29990). Kind of assay: Dengue-2 NS5 methyltransferase inhibitors, primary screen, biochemical, confirmation dose response (AID 588689). It counts as functional.
A short description of assay [12]: inhibitors of Bluetongue virus cytopathic effect, confirmation, arbovirus, BSR cells (AID 1250).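 Also: protection from viral cytopathic effect measured as cell viability by ATP luminescence.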 It counts as functional. (Damage to the host cells serves as the signal in cytopathic effect assays.)
A short description of assay [13]: NIH-3T3 fibroblast cytotoxicity, dose response, cytotoxicity control, cell-based, fluorescence, Alamar Blue, secondary assay (AID 2327).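 Also: NIH-3T3 mouse fibroblasts cultured with fluconazole at 8 µg/mL.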 Type of assay: functional. Background: Resazurin is reduced to fluorescent resorufin, in cell work by metabolically active cells.
Assay [14] is described as follows: C. albicans growth with fluconazole, confirmation, fluorescence, retest (AID 2467). Type of assay: functional, cell-based.
A short description of assay [15]: A Cell Based Secondary Assay To Explore Cytotoxicity of Compounds that Sensitize Mycobacterium Tuberculosis to Beta-Lactam Antibiotics. Type of assay: functional.
Another assay relates to H9c2. The experiment in a line: cells. The note with it: Rattus norvegicus, H9c2, Myocardium. It counts as functional, cell-based.
Assay [16] deals with Peroxisome proliferator-activated receptor gamma/Nuclear receptor coactivator 1 (Homo sapiens, UniProt P37231). It counts as functional.
Peroxisome proliferator-activated receptor gamma/Nuclear receptor coactivator 1, sequence (P37231 whole entry): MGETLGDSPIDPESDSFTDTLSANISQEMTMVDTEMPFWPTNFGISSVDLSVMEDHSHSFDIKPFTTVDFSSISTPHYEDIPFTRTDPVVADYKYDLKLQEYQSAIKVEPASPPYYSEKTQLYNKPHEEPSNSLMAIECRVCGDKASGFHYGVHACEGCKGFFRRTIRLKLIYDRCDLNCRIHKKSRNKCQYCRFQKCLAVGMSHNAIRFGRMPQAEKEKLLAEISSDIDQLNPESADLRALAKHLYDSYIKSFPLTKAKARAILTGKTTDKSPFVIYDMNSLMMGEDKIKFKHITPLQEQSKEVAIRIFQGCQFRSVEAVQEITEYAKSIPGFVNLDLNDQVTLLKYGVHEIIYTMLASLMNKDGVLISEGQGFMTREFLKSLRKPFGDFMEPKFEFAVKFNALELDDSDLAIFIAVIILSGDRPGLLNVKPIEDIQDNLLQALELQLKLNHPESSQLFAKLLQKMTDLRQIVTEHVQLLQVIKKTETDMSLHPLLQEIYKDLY
Peroxisome proliferator-activated receptor gamma/Nuclear receptor coactivator 1, sequence (Q15788 whole entry, further chain): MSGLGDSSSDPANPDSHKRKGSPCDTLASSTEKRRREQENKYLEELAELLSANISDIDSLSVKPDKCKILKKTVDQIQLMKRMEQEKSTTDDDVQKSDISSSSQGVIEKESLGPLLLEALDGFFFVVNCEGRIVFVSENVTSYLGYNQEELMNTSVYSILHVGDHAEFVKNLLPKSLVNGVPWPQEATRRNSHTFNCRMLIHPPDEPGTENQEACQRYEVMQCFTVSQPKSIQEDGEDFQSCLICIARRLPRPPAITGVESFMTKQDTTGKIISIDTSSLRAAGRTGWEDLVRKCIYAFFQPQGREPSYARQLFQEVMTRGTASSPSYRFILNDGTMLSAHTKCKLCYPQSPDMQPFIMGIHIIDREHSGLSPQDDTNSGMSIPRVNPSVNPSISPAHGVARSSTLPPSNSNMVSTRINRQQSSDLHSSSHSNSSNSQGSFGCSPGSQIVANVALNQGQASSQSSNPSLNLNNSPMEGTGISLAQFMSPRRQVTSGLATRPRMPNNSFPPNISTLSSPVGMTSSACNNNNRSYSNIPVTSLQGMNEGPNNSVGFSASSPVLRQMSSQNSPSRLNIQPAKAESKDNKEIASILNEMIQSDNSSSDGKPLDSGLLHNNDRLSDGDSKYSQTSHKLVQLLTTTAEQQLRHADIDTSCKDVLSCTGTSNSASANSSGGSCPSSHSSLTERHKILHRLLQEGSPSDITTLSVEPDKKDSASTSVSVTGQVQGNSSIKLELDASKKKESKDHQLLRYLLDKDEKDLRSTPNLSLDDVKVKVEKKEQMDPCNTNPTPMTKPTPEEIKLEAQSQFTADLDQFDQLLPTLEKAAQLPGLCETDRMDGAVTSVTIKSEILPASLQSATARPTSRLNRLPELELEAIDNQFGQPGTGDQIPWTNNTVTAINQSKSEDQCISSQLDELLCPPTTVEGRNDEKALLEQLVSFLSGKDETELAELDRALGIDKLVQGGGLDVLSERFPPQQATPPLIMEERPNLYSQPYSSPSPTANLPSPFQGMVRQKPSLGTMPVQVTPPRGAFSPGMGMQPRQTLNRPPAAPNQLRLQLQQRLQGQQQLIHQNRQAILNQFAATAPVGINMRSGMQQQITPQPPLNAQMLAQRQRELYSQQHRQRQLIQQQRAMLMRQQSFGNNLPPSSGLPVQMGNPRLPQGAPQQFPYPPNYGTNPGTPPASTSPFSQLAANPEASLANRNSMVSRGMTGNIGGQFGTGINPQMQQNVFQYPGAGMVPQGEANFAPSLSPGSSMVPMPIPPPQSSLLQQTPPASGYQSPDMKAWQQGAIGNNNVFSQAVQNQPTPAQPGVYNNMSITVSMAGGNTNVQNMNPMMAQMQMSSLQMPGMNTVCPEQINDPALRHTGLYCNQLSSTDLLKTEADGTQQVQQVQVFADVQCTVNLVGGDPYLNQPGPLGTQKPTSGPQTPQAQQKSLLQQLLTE
The target of assay [17] is Peroxisome proliferator-activated receptor gamma/Nuclear receptor coactivator 2 (Homo sapiens, UniProt P37231). It counts as functional.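 Also: agonist potency for raising coactivator recruitment to the receptor.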
Assay [18] deals with ADP-ribosylation factor GTPase-activating protein 1 (Rattus norvegicus, UniProt Q62848). The experiment in a line: Fluorescence polarization-based biochemical high throughput dose response screening assay to identify inhibitors of ADP-ribosylation factor GTPase activating protein 1 (ARFGAP1). Type of assay: functional.
ADP-ribosylation factor GTPase-activating protein 1, sequence (Q62848 whole entry): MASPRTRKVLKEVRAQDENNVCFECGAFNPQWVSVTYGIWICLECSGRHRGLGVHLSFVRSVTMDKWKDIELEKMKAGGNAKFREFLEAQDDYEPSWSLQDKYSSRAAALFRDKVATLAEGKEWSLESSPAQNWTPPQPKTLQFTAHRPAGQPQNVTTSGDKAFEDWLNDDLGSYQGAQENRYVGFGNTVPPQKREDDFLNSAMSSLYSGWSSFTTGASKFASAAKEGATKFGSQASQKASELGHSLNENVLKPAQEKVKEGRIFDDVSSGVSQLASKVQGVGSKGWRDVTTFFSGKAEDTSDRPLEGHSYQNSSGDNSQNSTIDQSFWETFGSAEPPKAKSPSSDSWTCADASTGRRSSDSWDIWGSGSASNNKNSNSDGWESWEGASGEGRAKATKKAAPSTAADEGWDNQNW
Assay [19] deals with Peroxisome proliferator-activated receptor gamma/Nuclear receptor coactivator 3 (Homo sapiens, UniProt P37231). Type of assay: functional.
For assay [20], the system named is HEK293. The experiment in a line: cells. As to conditions: Homo sapiens.
Assay [21] has as its target Sphingosine 1-phosphate receptor 4 (Homo sapiens, UniProt O95977). The experiment in a line: Fluorescence dose response cell-based high throughput screening assay for antagonists of the Sphingosine 1-Phosphate Receptor 4 (S1P4). [Related pubchem assays: 1524 (Confirmation in triplicates.), 1510 (Primary screen.)]. It counts as functional.
For assay [22], the target named is Sphingosine 1-phosphate receptor 1 (Homo sapiens, UniProt P21453). Type of assay: functional.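 Also: Tango beta-arrestin reporter U2OS cells stimulated with S1P near its EC80; inhibitor potency meaning antagonism of receptor activation by the natural agonist.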
Sphingosine 1-phosphate receptor 1, sequence (P21453 whole entry): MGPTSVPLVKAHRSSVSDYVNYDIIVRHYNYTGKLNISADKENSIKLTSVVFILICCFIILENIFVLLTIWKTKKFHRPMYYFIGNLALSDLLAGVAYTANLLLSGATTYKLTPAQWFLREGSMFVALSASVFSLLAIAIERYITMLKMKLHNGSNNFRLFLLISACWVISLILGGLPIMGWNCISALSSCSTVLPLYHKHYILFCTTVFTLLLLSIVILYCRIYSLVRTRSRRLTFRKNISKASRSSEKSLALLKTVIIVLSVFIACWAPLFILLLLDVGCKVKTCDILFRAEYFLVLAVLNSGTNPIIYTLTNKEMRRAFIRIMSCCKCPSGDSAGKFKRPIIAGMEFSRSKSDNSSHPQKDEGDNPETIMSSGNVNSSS
Assay [23] concerns HEK293. The experiment in a line: cells. The note with it: Homo sapiens. This is another data set of the same source.
Assay [24] in a line: inhibitors of PGC1a acetylation in cells, dose response, cell-based, cherry-picked samples (AID 720514).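 Also: potency may reflect raised or lowered acetylation signal.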 Type of assay: functional.
Assay [25] in a line: cytotoxicity in MIN6 insulinoma cells, dose response, cytotoxicity control, cell-based, mouse insulinoma (AID 2122).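 Also: confirmatory high-throughput counterscreen run to flag cytotoxic compounds; mouse MIN-6 beta cells carrying an insulin promoter eGFP reporter.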 Type of assay: functional.
Assay [26] can be described thus: Fluorescence-based cell-based high throughput dose response assay for inhibitors of the interaction of nucleotide-binding oligomerization domain containing 2 (NOD2) and the receptor-interacting serine-threonine kinase 2 (RIPK2). As to conditions: Homo sapiens. It counts as functional.
For another assay, the target named is Galanin receptor type 2 (Homo sapiens, UniProt O43603). Kind of assay: Dose Response cell-based high-throughput screening assay to identify antagonists of galanin receptor 2 (GALR2). [Related pubchem assays: 828, 866 ]. It counts as functional.
Galanin receptor type 2, sequence (O43603 whole entry): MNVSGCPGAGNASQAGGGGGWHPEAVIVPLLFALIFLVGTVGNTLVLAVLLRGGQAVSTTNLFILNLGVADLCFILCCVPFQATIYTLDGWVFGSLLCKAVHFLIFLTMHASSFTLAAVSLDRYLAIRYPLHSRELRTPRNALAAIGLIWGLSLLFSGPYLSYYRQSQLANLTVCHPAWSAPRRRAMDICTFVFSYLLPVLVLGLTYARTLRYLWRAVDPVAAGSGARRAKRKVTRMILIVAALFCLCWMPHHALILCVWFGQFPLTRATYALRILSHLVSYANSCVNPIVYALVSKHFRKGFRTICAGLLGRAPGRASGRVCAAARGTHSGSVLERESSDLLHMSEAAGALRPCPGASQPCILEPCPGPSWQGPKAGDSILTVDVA
The target in assay [27] is T1, Heat shock factor protein 1. Kind of assay: HSF1 potentiators in luciferase reporter cells, confirmation, cell-based, NIH3T3, luminescence, dose retest (AID 435004).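 Also: stress induced by proteasome inhibitor MG132 added 30 min after compound; luciferase reporter driven by HSF1 response element in NIH3T3 cells; actives raise luminescence as potentiators of the MG132 stress response.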 It counts as functional.
The nature of assay [28]: Luminescence Cell-Based Dose Retest to Confirm Inhibitors of Cancer Stem Cells. [Related pubchem assays (depositor defined):AID2717, AID2721]. It counts as functional. As to conditions: Homo sapiens.
The target in another assay is Paired box protein Pax-8 (Homo sapiens, UniProt Q06710). The experiment in a line: inhibitors of PAX8-driven TPO luciferase reporter, dose response, RMG-I cells, cherry-pick (AID 687027).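 Also: luciferase reporter driven by Pax8 target thyroperoxidase promoter measured by SteadyGlo luminescence.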 Type of assay: functional, cell-based.
Paired box protein Pax-8, sequence (Q06710 whole entry): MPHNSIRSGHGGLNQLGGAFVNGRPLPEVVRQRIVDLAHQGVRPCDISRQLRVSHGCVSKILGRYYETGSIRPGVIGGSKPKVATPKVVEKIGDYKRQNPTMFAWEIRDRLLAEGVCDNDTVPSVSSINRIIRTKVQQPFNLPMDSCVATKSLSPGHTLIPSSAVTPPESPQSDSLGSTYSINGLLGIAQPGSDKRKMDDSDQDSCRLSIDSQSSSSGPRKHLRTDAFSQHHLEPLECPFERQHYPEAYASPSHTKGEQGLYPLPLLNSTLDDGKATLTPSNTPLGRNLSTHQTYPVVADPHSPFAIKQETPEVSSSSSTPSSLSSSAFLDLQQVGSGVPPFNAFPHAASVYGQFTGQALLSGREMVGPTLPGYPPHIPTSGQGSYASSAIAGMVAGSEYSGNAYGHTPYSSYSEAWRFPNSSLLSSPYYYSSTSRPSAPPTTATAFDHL
Assay [29] can be described thus: insulin promoter down-regulators in MIN6 cells, imaging, high-content screening, mouse beta cells (AID 1628). Type of assay: functional.
The test system of the next assay is HeLa. Kind of assay: Cytotoxicity counterscreen assay for transcriptional activators of heat shock protein 70 (Hsp70). [Related pubchem assays: 1203, 1252 ]. Type of assay: functional. The note with it: Homo sapiens.
For assay [30], the target named is Heat shock protein HSP 90-alpha (Homo sapiens, UniProt P07900). It counts as functional, organism-based.
Another assay deals with INS1. The experiment in a line: beta cell apoptosis inhibitors, cytokine rescue, dose response, luminescence, retest (AID 449756).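 Also: cell death triggered by IL-1 beta plus TNF-alpha plus IFN-gamma mixture; protective hits raise ATP signal compared with cytokine alone wells.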 Type of assay: functional, cell-based. As to conditions: Rattus norvegicus.

Sphingosine 1-phosphate receptor 4, sequence (O95977 whole entry): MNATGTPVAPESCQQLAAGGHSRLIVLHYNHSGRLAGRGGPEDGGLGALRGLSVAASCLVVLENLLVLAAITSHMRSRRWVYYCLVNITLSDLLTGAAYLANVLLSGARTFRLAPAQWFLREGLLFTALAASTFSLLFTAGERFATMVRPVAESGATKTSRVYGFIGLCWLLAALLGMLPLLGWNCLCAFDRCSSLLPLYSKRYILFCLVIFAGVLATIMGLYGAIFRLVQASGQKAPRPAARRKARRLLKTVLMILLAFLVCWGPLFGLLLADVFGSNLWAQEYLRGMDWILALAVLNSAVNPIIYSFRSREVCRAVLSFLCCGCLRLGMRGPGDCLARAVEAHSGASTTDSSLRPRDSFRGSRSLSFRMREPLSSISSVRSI
Genome polyprotein, sequence (P29990 2492-3391 limits assumed): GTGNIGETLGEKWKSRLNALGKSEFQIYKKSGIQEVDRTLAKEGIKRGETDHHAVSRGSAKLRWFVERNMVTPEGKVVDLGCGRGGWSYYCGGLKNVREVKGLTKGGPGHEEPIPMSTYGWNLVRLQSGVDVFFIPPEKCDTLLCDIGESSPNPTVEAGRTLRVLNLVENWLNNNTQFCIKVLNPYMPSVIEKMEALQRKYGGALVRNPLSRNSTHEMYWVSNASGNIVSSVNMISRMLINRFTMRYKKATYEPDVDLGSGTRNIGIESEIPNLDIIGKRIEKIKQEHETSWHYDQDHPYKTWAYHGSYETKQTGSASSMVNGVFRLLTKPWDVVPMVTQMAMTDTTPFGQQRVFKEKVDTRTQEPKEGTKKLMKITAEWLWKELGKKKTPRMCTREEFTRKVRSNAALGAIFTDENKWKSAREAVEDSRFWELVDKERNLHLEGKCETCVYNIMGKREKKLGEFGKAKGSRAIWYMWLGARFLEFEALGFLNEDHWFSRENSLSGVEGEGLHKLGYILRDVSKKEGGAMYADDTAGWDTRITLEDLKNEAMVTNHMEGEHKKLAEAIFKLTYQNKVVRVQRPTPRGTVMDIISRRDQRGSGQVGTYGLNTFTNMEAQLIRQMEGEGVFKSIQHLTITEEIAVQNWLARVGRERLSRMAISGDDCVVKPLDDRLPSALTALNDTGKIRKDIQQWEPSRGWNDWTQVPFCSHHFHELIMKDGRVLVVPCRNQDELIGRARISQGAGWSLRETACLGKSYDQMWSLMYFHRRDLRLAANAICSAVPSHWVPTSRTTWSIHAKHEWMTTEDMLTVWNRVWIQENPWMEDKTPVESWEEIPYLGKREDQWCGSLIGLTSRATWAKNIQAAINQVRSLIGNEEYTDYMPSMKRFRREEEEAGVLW

What is called EC50 is the concentration needed to bring the measured effect to its halfway point. As a reminder, the IC50 is the midpoint of a concentration-inhibition curve. The AC50 is the midpoint of the concentration-response curve, whichever way the signal moves. As to `O=C(NC1=NCCS1)C1COc2ccccc2O1` (stereo unspecified), the EC50 in assay [1] is > 60 µM (not active); in [4], 8.01 µM (active); in [6] it was 0.149 µM (active); in assay [9], 3.37 µM (active). Also, the IC50 in assay [2] was > 39.8 µM (not active). Moreover, the AC50 in [3] is 1.62 µM (active); in assay [5], 1.7 µM (active); in assay [7], 13.7 µM (active); in assay [8], 3.6 µM (active); in assay [10] it was 3.15 µM (active).

Consider `CC(C)NC(=O)/C(C#N)=C/c1ccc(N(C)C)o1`, for which, in assay [11], the EC50 was > 100 µM (active).

Regarding `CCCCCCn1c(=O)c(-c2ccccc2)c(O)c2ccccc21`, the IC50 was 69.4 µM (active) on Genome polyprotein and 25 µM (active) in assay [12]. Also, the EC50 is > 150 µM (inactive) in [13] and 4.42 µM (active) in assay [14].

By CC50 is commonly meant the concentration at which the toxic effect on the cells reaches its halfway point. As to `Nc1c(C(=O)NC2CC2)c2nc3ccccc3nc2n1-c1ccc2c(c1)OCO2`, the CC50 in assay [15] was > 40 µM (active). The IC50 with H9c2 was > 79 µM (inactive).

With `COc1ccccc1CNC(=O)CSc1nc(N)c(C#N)c(-c2cccs2)c1C#N`, the EC50 in assay [16] was > 79.4 µM (not active); in assay [17] it was 67.6 µM (not active); in [19] it was > 79.4 µM (not active). In assay [18], the IC50 is 43.2 µM (inactive).

For `O=C(Cn1ncc(Cl)c(Cl)c1=O)N1CCN(S(=O)(=O)c2ccc3ccccc3c2)CC1`, the EC50 is > 59.6 µM (inactive) in the assay with HEK293 [20], > 59.6 µM (inactive) with HEK293 [23] and 3.7 µM (active) in [27]. In addition, the IC50 in [21] is 1.52 µM (active); in [22] it was 8.59 µM (active); in assay [25], 1.19 µM (active); in assay [26], 1.77 µM (active); on Galanin receptor type 2 it was 5.37 µM (active); in [29], 1.34 µM (active). The AC50 in assay [24] is 4.24 µM (active); in [28] it was 3.25 µM (active); on Paired box protein Pax-8 it was 2.51 µM (active).

For `CC(C)(C)C1C/C(=C/c2ccccn2)C(=O)/C(=C/c2ccccn2)C1` (stereo unspecified), the CC50 in the assay on HeLa was > 1.22 µM (not active). Besides, the AC50 is 7.8 µM (active) in assay [30] and 0.579 µM (active) with INS1.
